# Marks after values point to notes of the source that are not given here.
# What was measured:
# A3 = A3 (Homo sapiens, UniProt P0DMS8); assay: Adenosine receptor A3 binding; details: [^125I]AB-MECA, Human recombinant HEK-293 cells, read-out: CR6086 Activity at 10µM
# [1] = Plasma protein binding (equilibrium dialysis, [^14C]CR6086); type: in vitro ADME; details: rat, 0.2–200 μM, read-out: unbound fraction (fu)
# Experimental: CR6086 concentrations in rat plasma were determined by high-performance liquid chromatography (Agilent 1200 series; Agilent Technologies, Santa Clara, CA, USA) coupled with a triple-quadrupole mass spectrometer (API 4000 QTRAP; SCIEX, Concord, ON, Canada). A ZORBAX SB-C18 2.0 × 50-mm, 3.5-μm column (Agilent Technologies) in isocratic conditions was used with mobile phase 0.1% formic acid in water/acetonitrile (68:32 vol/vol). The method was linear within the dynamic range 1.0–10,000 ng/ml (lower to upper limit of quantification). CR6086 plasma protein binding was determined in the 0.2–200 μM concentration range using [^14C]CR6086 and equilibrium dialysis. EP4 receptor occupancy (RO) was calculated on the basis of CR6086 concentrations according to the following formula: RO%=Cave/Cave+Ki×100,
# σ (non-selective) = assay: σ receptor (non-selective) binding; details: [^3H]DTG, Rat cerebral cortex
# Y2 = Y2 (Homo sapiens, UniProt P49146); assay: Neuropeptide Y receptor Y2 binding; details: [^125I]peptide YY, KAN-TS cells, read-out: CR6086 Activity at 10µM
# Y2, sequence (P49146 whole entry): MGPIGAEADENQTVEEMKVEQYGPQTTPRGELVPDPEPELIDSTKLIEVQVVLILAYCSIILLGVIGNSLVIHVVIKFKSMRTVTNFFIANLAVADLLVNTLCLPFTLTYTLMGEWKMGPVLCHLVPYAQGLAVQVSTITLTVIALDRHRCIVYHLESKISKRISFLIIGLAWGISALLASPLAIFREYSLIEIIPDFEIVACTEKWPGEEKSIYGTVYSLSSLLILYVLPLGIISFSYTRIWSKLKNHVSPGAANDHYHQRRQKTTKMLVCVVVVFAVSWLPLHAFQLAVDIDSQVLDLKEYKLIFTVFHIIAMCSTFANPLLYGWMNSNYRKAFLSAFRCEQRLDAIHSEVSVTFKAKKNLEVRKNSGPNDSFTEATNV
# A1 = A1 (Homo sapiens, UniProt P30542); assay: Adenosine receptor A1 binding; details: [^3H]DPCPX, Human recombinant CHO cells, read-out: CR6086 Activity at 10µM
# A1, sequence (P30542 whole entry): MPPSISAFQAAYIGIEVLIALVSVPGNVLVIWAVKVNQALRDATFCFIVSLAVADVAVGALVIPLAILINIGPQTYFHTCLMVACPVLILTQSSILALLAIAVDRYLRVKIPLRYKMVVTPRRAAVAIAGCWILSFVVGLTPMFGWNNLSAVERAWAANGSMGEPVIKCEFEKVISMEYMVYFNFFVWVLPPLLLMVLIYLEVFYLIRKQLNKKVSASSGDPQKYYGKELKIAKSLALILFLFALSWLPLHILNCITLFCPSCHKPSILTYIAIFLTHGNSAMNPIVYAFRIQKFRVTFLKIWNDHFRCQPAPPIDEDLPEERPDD
# [2] = test system: arthritic mice (collagen-induced arthritis model); assay: CIA in mice, third study (CR6086, MTX, combination): clinical score, oedema, histology; type: in vivo, mouse; details: for CLINICAL SCORE (interquartile range): 30 mg/kg CR6086, median (IQR)
# [3] = test system: Ca2+ channel (L, verapamil site); assay: Ion channel Ca2+ (L, verapamil site) binding; details: up to 100µM (cell); [^3H]verapamil [^3H]D888; Rat cerebral cortex
# EP1 = biological target: T1, EP1 (Homo sapiens, UniProt P34995); assay: Eicosanoid receptor EP1 binding; details: [^3H]PGE2, HEK-293 cells, read-out: CR6086 Activity at 10µM
# T1 construct: host or cells: HEK-293 cells
# T1 sequence (P34995 whole entry): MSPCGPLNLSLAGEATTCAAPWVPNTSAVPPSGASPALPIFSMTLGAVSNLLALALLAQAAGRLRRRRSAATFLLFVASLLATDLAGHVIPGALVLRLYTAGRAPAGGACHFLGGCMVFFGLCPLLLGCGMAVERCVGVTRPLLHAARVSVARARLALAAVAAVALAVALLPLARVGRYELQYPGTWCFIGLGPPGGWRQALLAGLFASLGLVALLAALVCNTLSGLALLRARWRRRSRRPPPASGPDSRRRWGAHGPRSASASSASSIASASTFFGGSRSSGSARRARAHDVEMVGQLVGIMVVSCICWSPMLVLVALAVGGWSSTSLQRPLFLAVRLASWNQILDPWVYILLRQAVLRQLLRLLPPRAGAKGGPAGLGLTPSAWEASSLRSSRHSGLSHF
# 5-HT5a = 5-HT5a (Homo sapiens, UniProt P47898); assay: Serotonin receptor 5-HT5a binding; details: [^3H]LSD, Human recombinant HEK-293 cells, read-out: CR6086 Activity at 10µM
# 5-HT5a, sequence (P47898 whole entry): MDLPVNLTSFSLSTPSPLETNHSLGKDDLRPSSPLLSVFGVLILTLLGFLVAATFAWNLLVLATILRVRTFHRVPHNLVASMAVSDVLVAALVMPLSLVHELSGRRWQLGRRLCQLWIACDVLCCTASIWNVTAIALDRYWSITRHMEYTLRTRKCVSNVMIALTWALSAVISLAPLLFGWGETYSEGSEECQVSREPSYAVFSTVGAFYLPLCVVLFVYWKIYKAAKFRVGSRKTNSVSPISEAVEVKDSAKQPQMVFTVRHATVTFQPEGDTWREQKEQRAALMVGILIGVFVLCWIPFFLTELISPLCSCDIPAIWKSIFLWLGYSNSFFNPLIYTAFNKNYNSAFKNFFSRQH
# CysLT1 (Cys-LTs) = CysLT1 (Cys-LTs) (Homo sapiens, UniProt Q9Y271); assay: Eicosanoid receptor CysLT1 binding; details: [^3H]LTD4, HEK-293 cells, read-out: CR6086 Activity at 10µM
# CysLT1 (Cys-LTs), sequence (Q9Y271 whole entry, species assumed): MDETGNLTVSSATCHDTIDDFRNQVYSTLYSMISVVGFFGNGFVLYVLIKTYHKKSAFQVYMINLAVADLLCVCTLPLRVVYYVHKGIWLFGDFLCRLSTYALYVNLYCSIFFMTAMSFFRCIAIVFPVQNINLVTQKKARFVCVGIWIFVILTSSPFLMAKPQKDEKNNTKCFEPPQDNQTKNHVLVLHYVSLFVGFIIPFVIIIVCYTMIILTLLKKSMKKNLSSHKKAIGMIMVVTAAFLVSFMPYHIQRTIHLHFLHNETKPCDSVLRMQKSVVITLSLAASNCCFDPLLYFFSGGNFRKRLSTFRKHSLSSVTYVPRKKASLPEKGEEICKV
# AR = AR (Homo sapiens, UniProt P10275, T878A); assay: Nuclear receptor AR binding; details: [^3H]methyltrienolone, LNCaP cells, read-out: CR6086 Activity at 10µM
# AR, sequence (P10275 whole entry T878A): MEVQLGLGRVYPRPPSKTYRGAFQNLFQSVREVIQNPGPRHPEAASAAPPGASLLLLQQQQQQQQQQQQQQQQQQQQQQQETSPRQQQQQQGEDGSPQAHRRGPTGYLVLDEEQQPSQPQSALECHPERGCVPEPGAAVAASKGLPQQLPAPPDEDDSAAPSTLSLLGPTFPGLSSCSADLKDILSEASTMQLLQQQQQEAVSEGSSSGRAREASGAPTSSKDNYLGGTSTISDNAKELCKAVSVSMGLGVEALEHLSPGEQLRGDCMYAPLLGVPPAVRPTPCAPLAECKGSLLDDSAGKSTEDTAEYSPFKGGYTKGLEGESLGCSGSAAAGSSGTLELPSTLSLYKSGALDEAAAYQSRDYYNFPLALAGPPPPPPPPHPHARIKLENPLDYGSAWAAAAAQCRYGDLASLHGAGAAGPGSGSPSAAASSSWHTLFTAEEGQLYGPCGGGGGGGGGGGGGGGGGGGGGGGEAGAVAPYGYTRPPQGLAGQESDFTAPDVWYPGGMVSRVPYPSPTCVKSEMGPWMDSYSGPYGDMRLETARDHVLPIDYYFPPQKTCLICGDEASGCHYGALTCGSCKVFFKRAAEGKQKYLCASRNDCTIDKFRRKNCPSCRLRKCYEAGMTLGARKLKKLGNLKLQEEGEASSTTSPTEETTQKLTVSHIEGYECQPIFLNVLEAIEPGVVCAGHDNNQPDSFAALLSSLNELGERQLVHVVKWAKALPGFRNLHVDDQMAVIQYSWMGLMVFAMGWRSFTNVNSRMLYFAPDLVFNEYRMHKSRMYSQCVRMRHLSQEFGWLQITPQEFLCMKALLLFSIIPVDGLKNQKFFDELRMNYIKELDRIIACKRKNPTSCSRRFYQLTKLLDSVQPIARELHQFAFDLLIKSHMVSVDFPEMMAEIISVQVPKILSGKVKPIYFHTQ
# M1 = M1 (Homo sapiens, UniProt P11229); assay: Muscarinic acetylcholine receptor M1 binding; details: [^3H]pirenzepine, Human recombinant CHO cells, read-out: CR6086 Activity at 10µM
# M1, sequence (P11229 whole entry): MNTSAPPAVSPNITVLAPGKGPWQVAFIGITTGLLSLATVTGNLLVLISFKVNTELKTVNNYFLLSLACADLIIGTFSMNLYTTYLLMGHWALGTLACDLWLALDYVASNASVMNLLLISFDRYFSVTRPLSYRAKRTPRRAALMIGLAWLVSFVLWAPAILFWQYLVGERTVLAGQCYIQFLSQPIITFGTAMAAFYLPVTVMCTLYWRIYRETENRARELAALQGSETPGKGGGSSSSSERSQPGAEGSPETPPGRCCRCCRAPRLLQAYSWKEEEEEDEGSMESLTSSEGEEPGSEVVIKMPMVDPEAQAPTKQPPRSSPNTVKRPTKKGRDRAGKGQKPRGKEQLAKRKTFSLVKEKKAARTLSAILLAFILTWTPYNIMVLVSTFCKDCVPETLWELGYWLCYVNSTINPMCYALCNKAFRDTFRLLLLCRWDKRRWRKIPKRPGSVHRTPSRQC
# A3, sequence (P0DMS8 whole entry): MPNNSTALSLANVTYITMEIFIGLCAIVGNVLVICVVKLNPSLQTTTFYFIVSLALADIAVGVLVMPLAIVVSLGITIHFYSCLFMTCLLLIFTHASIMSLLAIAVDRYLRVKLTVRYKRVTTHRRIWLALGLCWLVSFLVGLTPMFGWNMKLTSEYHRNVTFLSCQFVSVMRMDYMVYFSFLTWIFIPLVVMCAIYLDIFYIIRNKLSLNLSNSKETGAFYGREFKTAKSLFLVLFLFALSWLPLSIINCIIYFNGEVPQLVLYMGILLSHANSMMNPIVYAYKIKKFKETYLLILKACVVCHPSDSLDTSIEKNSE
smiles,measurement,setting,value
"O=C([O-])c1ccc(C2(NC(=O)[C@H]3CC4(CCN3Cc3ccc(C(F)(F)F)cc3)CC4)CC2)cc1.[Na+] [CR6086, Sodium (R)-4-(1-(6-(4-(trifluoromethyl)benzyl)-6-azaspiro[2.5]octane-5-carboxamido)cyclopropyl)benzoate]",inhibition at 10 µM,A3,< 20%
same,fraction unbound,[1],0.0484
same,CR6086 Activity at 10µM,σ (non-selective),IN (IN = < 20% displacement or inhibition (all tables))
same,inhibition at 10 µM,Y2,< 20%
same,inhibition at 10 µM,A1,< 20%
same,effect on joint histopathology,"[2]; 16 days, 30 mg/kg CR6086, 3 mg/kg MTX, alone or combined",significantly improved all histological features of arthritis
same,CLINICAL SCORE (interquartile range),[2]; DAY 0,2.0 (2.0 – 2.0) *
same,CLINICAL SCORE (interquartile range),[2]; DAY 1,2.0 (2.0 – 2.0)
same,CLINICAL SCORE (interquartile range),[2]; DAY 2,2.0 (1.0 – 2.0)
same,CLINICAL SCORE (interquartile range),[2]; DAY 3,2.0 (1.0 – 3.1)
same,CLINICAL SCORE (interquartile range),[2]; DAY 4,2.0 (1.0 – 2.3)
same,CLINICAL SCORE (interquartile range),[2]; DAY 5,2.0 (1.3 – 2.0)
same,CLINICAL SCORE (interquartile range),[2]; DAY 6,2.0 (2.0 – 3.0)
same,CLINICAL SCORE (interquartile range),[2]; DAY 7,2.0 (1.0 – 3.1)
same,CLINICAL SCORE (interquartile range),[2]; DAY 8,2.0 (0.5 – 3.5)
same,CLINICAL SCORE (interquartile range),[2]; DAY 9,2.0 (1.0 – 3.3)
same,CLINICAL SCORE (interquartile range),[2]; DAY 10,2.5 (2.0 – 4.3)
same,CLINICAL SCORE (interquartile range),[2]; DAY 11,4.0 (2.0 – 5.0)
same,CLINICAL SCORE (interquartile range),[2]; DAY 12,4.8 (2.8 – 5.1)
same,CLINICAL SCORE (interquartile range),[2]; DAY 13,4.5 (3.0 – 5.5)
same,CLINICAL SCORE (interquartile range),[2]; DAY 14,3.0 (3.0 – 4.9)
same,CLINICAL SCORE (interquartile range),[2]; DAY 15,4.5 (3.0 – 5.0)
same,CLINICAL SCORE (interquartile range),[2]; DAY 16,2.0 (1.0 – 3.5)
same,CR6086 Activity at 10µM,[3],IN up to 100µM (IN = < 20% displacement or inhibition (all tables))
same,inhibition at 10 µM,EP1,< 20%
same,inhibition at 10 µM,5-HT5a,< 20%
same,inhibition at 10 µM,CysLT1 (Cys-LTs),< 20%
same,inhibition at 10 µM,AR,< 20%
same,inhibition at 10 µM,M1,< 20%
